Non-standard residues stand in square brackets, D forms with d. Residues, ends and D or L forms follow the SMILES beside them. *: point of attachment. Asu = N[C@@H](CCCCCC(=O)O)C(=O)O; NHOH = ON*
Columns and labels:
[1] = tested on: colon cancer Colon26 cell line; assay: Cell proliferation inhibition (72 hours); format: cell-based, mouse; conditions: read-out: 50% proliferation inhibiting concentration Colon 26 (nM) mean
Excerpt: (§1) In order to verify the action of the cyclic tetrapeptide derivative according to the present invention in inhibiting cell proliferation in cancerized cells, the action on the proliferation of the aforementioned B16/BL6 cells was investigated. The evaluation of cell proliferation rates was done utilizing a commercially available measuring kit, specifically, from Promega under the trade name CellTiter 96 Aqueous Non-Radioactive Proliferation Assay Kit. In the measuring kit, the amount of products through reduction of a reagent tetrazolium compound (3-(4,5-dimethylthiazol-2-yl)-5-(3-carboxymethoxyphenyl)-2-(4-sulfophenyl)-2H-tetrazolium, inner salt; MTS) by viable animal cells is determined by detecting spectrophotometrically the color generated from the products. Since the amount of products is proportional to the amount of viable cells, this kit is utilized to evaluate the amount of viable cells.
(§2) According to the procedure of Test Example 1, B16/BL6 cells are inoculated in a 96 well microplate and cultured for 24 hours. Then, 10 μl of a solution of the source solution of a compound to be tested which has been diluted to a predetermined amount per well is added. Thereafter, culture is continued for additional 48 hours and 20 μl of a reagent solution in the aforementioned CellTiter 96 Aqueous Non-Radioactive Proliferation Assay Kit is then added. After incubation is continued at 37° C. for 1 hour, the amount of color generation is measured as an absorbance at 490 n musing a microplate reader.
(§3) The amount of cell proliferation of a group to which a compound to be tested is added is expressed in a relative value as compared to the standard cell proliferation (100%) in a control group to which no compound to be tested is added. For each compound tested, the amounts of cell proliferation were measured at different concentrations of addition and the dependence of the quantitative cell proliferation on the concentration of addition was investigated. From the results, a concentration of addition at which the amount of cell proliferation was inhibited by 50% relative to the amount of cell proliferation in the control group without addition was determined.
(§4) The test method was in accordance with the above-mentioned procedure, except that the period of incubation after the addition of a compound was 72 hours.
(§5) As illustrative examples, results are shown for an evaluation using mouse malignant melanoma B16/BL6 and B16 cell lines; leukemia L1210 cell line, colon cancer Colon26 cell line, and liver cancer MH134 cell line as cancer cells. For the cell proliferation inhibiting action of each compound tested for these cancer cells, 50% proliferation inhibiting concentrations are shown in Table 4.

leukemia L1210 cell line = assay: Cell proliferation inhibition (72 hours); format: cell-based, mouse; conditions: read-out: 50% proliferation inhibiting concentration L1210 (nM) mean
Excerpt: as §1, §2, §3, §4, §5

[2] = tested on: liver cancer MH134 cell line; assay: Cell proliferation inhibition (72 hours); format: cell-based, mouse; conditions: read-out: 50% proliferation inhibiting concentration MH134 (nM) mean
Excerpt: as §1, §2, §3, §4, §5

[3] = tested on: mouse malignant melanoma B16 cell line; assay: Cell proliferation inhibition (72 hours); format: cell-based; conditions: read-out: 50% proliferation inhibiting concentration B16 (nM) mean
Excerpt: as §1, §2, §3, §4, §5

MH134 = assay: In vivo anti-cancer activity in mouse (ascites tumor system); conditions: for Median Survival days (T/C %): MH134 ascites, C3H/HeN mouse
Experimental: (§6) With respect to an ascites tumor system, in vivo anti-cancer activity of the cyclic tetrapeptide compounds according to the present invention was evaluated using cancer-carrying mouse. The cancer cells used were L1210, B16, Colon26and MH134. These cancer cells were cultured in a conventional manner and suspended in PBS, and 10^5 cells of L1210, or 10^6 cells of B16, Colon26 or MH134 were intraperitoneally transplanted into each mouse (100 μl/mouse). The mouse used was CDF1, BDF1, CDF1 or C3H/HeN (male, 7 weeks in age) for L1210, B16, Colon 26or MH134, respectively. Drug administration was started from the day next to the transplantation of cancer cells. For L1210, 0.5% carboxymethyl cellulose Na suspension and for other cancer cells, PBS solution (actually, as suspension neutralized with NaOH) were continuously administered everyday (100 μl/mouse). The period of administration was 4 days for L1210, 9 days for B16 and MH134, and 8 days for Colon26.
(§7) After the administration period passed, the mice administered were bred and median survival days were calculated on the basis of the number of days from the transplantation of cancer cells to death. The percent ratio (T/C%) between the median survival days (C) for a control group to which an equal amount of a drug-free solution was administered and the median survival days (T) of the treated group administered with the drug was determined.

B16 = assay: as above; conditions: for Median Survival days (T/C %): B16 ascites, BDF1 mouse
Experimental: as §6, §7

L1210 = assay: as above; conditions: for Median Survival days (T/C %): L1210 ascites, CDF1 mouse
Experimental: as §6, §7

Colon26 = assay: as above; conditions: for Median Survival days (T/C %): Colon26 ascites, CDF1 mouse
Experimental: as §6, §7

histone deacetylase = assay: Histone deacetylase enzyme inhibiting activity, synthetic peptide substrate; format: biochemical, mouse; conditions: enzyme from B16/BL6 cells; [3H]acetylated histone H4 peptide; 37° C. 3 hours
How it was run: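 Crude HDAC was partially purified from B16/BL6 cell nuclei by ammonium sulfate precipitation and gel filtration. Enzyme was incubated with [^3H]acetylated histone H4 N-terminal peptide and compound at 37° C. for 3 h. Released [^3H]acetate was ethyl acetate-extracted and counted, giving IC50 versus the no-compound control.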

[4] = 0.015 mg/mouse everyday for 9 days
[5] = 0.05 mg/mouse everyday for 9 days
[6] = 0.15 mg/mouse everyday for 9 days

Question: With `CC[C@H](C)[C@@H]1NC(=O)[C@@H](Cc2ccc(OC)cc2)NC(=O)[C@H](CCCCCC(=O)NO)NC(=O)[C@H]2CCCN2C1=O` [HDA-31, cyclo(-L-Asu(NHOH)-D-Tyr(Me)-L-Ile-D-Pro-)] (cyclo([Asu](NHOH)[dY](Me)I[dP])) as the compound, how does the IC50 [1] read?
Answer: Its IC50 is 33 nM.

Question: And the IC50 (leukemia L1210 cell line)?
Answer: Its IC50 is 18.8 nM.

Question: What about the IC50 [2] of the same compound?
Answer: The IC50 was 50.7 nM.

Question: And the IC50 [3]?
Answer: Its IC50 is 44.2 nM.

Question: What about the life-saving effect (MH134; MH134 ascites tumor) of the same compound?
Answer: The life-saving effect was “no life-saving effect was observed”.

Question: And the “Median Survival days (T/C %)” value (MH134; [4])?
Answer: The value was 95.8%.

Question: What about the “Median Survival days (T/C %)” value (MH134; [5]) of the same compound?
Answer: Its value is 85.4%.

Question: And the “Median Survival days (T/C %)” value (MH134; [6])?
Answer: Its value is 91.7%.

Question: And the life-saving effect (B16; B16 ascites tumor)?
Answer: The life-saving effect was “obviously exhibited a life-saving effect”.

Question: What about the “Median Survival days (T/C %)” value (B16; [4]) of the same compound?
Answer: Its value is 117%.

Question: What about the “Median Survival days (T/C %)” value (B16; [5]) of the same compound?
Answer: Its value is 119%.

Question: What about the “Median Survival days (T/C %)” value (B16; [6]) of the same compound?
Answer: The value was 139%.

Question: What about the life-saving effect (L1210; L1210 ascites tumor) of the same compound?
Answer: Its life-saving effect is “obviously exhibited a life-saving effect”.

Question: And the “Median Survival days (T/C %)” value (L1210; 0.015 mg/mouse everyday for 4 days)?
Answer: The value was 113%.

Question: What about the “Median Survival days (T/C %)” value (L1210; 0.15 mg/mouse everyday for 4 days) of the same compound?
Answer: The value was 125%.

Question: What about the “Median Survival days (T/C %)” value (L1210; 1.5 mg/mouse everyday for 4 days) of the same compound?
Answer: The value was 37.5%.

Question: What about the life-saving effect (Colon26; Colon26 ascites tumor) of the same compound?
Answer: Its life-saving effect is “no life-saving effect was observed”.

Question: What about the “Median Survival days (T/C %)” value (Colon26; 0.015 mg/mouse everyday for 8 days) of the same compound?
Answer: The value was 90.9%.

Question: And the “Median Survival days (T/C %)” value (Colon26; 0.05 mg/mouse everyday for 8 days)?
Answer: The value was 86.4%.

Question: What about the “Median Survival days (T/C %)” value (Colon26; 0.15 mg/mouse everyday for 8 days) of the same compound?
Answer: Its value is 63.6%.

Question: What about the IC50 (histone deacetylase) of the same compound?
Answer: Its IC50 is 3.32 nM.

Reference: US6399568B1, “Cyclic tetrapeptide derivatives and medicinal use thereof” (Japan Energy Corporation, priority 1997, dated 2002)
